Assay results taken from patent publication US20250320189A1, “NEW DERIVATIVES FOR TREATING TRPM3 MEDIATED DISORDERS” (Katholieke Universiteit Leuven, priority 2022, published 2025).
pIC50: −log10 of the molar value.

biological target: T1, mouse TRPM3α2 (mTRPM3) ion channel (Mus musculus, UniProt J9SQF3); assay: Monitoring the TRPM3 ion channel driven Ca2+ uptake (Fluo-4 AM assay); format: cell-based; conditions: mTRPM3alpha2 overexpressing flip-in HEK293 cells, stimulated with Pregnenolone sulfate (PS) 50 μM
T1 construct: expressed in transfected cells; host or cells: flip-in (Flp-In) HEK293
Protocol: In order to monitor the inhibition of the mouse TRPM3α2 (mTRPM3) ion channel by the compounds of the invention, a cellular system making use of an mTRPM3alpha2 or hTRPM3 overexpressing cell line (flip-in HEK293) was used. The TRPM3 channel was stimulated/opened with Pregnenolone sulfate (PS) (50 μM) which results in Ca^2+ influx.
For mTRPM3, the intracellular Ca^2+ was measured with a Calcium responsive dye, Fluor-4 AMV ester (Invitrogen). Cells were cultured until a confluence of 80-90%, washed with Versene (Invitrogen) and detached from the surface by a short incubation with 0.05% Trypsin (Invitrogen). The trypsination process was stopped by the addition of complete cell culture medium (DMEM, glutamax, 10% FCS, NEAA,Pen-Strep). Cells were collected and resuspended in Krebs buffer without Calcium at RT.
Prior the cell seeding (±2000 cells/well into a black, 384 well plate (Greiner)) the diluted compound was added in the assay plate, together with the PS dissolved in Krebs buffer containing Calcium. […] Directly after cell addition the plates were read on an Envision fluorescence reader (PerkinElmer) by an Excitation of 485 nm and emission at 535 nm.
Channel inhibition was calculated compared to a non-PS stimulated control versus a condition stimulated with PS (50 μM) with vehicle. The ability of the compounds of the invention to inhibit this activity was determined as: Percentage inhibition=[1−((RFU determined for sample with test compound present−RFU determined for sample with positive control inhibitor) divided by (RFU determined in the presence of vehicle−RFU determined for sample with positive control inhibitor))]*100.
The activities of the Example compounds tested are depicted in the table below. The activity ranges A, B and C refer to IC50 values in the Fluo-4 AM assay as follows: “A”: IC50<1 μM; “B”: 1 μM≤IC50≤20 μM and “C”: IC50>20 μM

T1 sequence (J9SQF3 1-1709 isoform J9SQF3-12): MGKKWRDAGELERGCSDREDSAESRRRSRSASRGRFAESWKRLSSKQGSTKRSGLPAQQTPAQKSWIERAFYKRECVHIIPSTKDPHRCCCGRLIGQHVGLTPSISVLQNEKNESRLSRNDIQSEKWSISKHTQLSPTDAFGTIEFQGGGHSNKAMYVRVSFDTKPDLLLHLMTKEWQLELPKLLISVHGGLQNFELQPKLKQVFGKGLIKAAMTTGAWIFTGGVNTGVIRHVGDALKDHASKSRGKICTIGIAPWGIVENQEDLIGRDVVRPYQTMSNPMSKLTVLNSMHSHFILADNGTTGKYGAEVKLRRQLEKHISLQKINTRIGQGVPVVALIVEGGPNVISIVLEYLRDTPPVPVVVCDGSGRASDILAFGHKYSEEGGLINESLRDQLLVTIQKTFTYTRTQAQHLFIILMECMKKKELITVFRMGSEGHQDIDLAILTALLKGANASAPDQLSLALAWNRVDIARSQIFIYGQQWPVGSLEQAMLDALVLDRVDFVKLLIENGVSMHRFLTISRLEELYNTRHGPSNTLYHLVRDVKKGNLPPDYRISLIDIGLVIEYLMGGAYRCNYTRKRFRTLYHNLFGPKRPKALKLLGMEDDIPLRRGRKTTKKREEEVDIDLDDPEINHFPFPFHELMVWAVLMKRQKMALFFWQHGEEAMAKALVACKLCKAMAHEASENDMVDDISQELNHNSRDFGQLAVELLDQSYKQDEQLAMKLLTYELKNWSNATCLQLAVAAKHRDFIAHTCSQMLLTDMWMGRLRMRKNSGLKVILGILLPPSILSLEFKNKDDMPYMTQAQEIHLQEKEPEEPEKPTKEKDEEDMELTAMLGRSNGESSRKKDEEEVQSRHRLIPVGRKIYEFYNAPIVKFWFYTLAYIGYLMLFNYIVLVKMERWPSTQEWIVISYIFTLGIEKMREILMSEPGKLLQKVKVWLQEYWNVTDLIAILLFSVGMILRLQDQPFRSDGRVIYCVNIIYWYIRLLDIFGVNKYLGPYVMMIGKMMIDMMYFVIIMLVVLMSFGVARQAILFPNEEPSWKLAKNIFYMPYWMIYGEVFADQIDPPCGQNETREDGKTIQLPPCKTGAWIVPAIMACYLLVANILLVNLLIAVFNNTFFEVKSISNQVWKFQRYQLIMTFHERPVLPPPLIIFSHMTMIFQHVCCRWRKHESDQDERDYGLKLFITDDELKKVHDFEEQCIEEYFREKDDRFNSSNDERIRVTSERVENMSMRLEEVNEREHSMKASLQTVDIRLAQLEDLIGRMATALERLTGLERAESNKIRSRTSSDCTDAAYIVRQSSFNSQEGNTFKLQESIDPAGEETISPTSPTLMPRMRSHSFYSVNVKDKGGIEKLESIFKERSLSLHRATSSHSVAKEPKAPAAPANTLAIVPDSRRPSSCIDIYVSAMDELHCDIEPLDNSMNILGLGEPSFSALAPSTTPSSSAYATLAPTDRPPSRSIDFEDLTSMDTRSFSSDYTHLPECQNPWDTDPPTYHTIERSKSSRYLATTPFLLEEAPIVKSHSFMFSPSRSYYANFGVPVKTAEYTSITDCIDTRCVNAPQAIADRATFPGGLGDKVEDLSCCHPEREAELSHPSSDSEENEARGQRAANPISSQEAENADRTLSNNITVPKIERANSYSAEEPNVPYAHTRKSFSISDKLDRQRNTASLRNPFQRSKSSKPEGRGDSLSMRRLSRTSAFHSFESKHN

Compound | pIC50
Cc1oc2ccc(OC[C@H]3C[C@@H](C)C3)cc2c1C(=O)NC(C)(CO)C(N)=O (single isomer, unassigned) [Cpd 058 - En1, Cis-3-hydroxy-2-methyl-2-({2-methyl-5-[(3-methylcyclobutyl)methoxy]-1-benzofuran-3-yl}formamido)propenamide] | > 6.00
Cc1oc2ccc(OCC(F)F)cc2c1C(=O)NC1(C(N)=O)CCOC1 (single isomer, unassigned) [Cpd 044 - En2, N-(3-carbamoyloxolan-3-yl)-5-(2,2-difluoroethoxy)-2-methyl-1-benzofuran-3-carboxamide] | > 6.00
Cc1oc2ccc(OCC(F)(F)F)cc2c1C(=O)NC(C)(CO)C(N)=O (single isomer, unassigned) [Cpd 047 - En1, 3-hydroxy-2-methyl-2-{[2-methyl-5-(2,2,2-trifluoroethoxy)-1-benzofuran-3-yl]formamido}propanamide] | 4.70 to 6.00
Cc1oc2ccc(OCC3CC3(C)C)cc2c1C(=O)NC(C)(CO)C(N)=O (single isomer, unassigned) [Cpd 049 - En3, 2-({5-[(2,2-dimethylcyclopropyl)methoxy]-2-methyl-1-benzofuran-3-yl}formamido)-3-hydroxy-2-methylpropanamide] | > 6.00
Cc1oc2ccc(OCC(F)F)cc2c1C(=O)N[C@@H](CO)C(N)=O [Cpd 038, (2S)-2-{[5-(2,2-difluoroethoxy)-2-methyl-1-benzofuran-3-yl]formamido}-3-hydroxypropanamide] | > 6.00
Cc1oc2ccc(OCC3CC3(C)C)cc2c1C(=O)NC1CCNCC1(F)F (single isomer, unassigned) [Cpd 033-En1, N-(3,3-difluoropiperidin-4-yl)-5-[(2,2-dimethylcyclopropyl)methoxy]-2-methyl-1-benzofuran-3-carboxamide] | 4.70 to 6.00
Cc1oc2ccc(OCC3CC3)cc2c1C(=O)NC1(CO)CCCNC1=O (single isomer, unassigned) [Cpd 027 - En1, 5-(cyclopropylmethoxy)-N-[3-(hydroxymethyl)-2-oxopiperidin-3-yl]-2-methyl-1-benzofuran-3-carboxamide] | > 6.00

Continued, values first:

pIC50 | Compound
> 6.00 | Cc1oc2ccc(OCC3CCC3)cc2c1C(=O)NC(C)(CO)C(N)=O (single isomer, unassigned) [Cpd 053 - En2, 2-{[5-(cyclobutylmethoxy)-2-methyl-1-benzofuran-3-yl]formamido}-3-hydroxy-2-methylpropanamide]
> 6.00 | Cc1oc2ccc(OCC3CCCC3)cc2c1C(=O)NC(C)(CO)C(N)=O (single isomer, unassigned) [Cpd 062 - En2, 2-{[5-(cyclopentylmethoxy)-2-methyl-1-benzofuran-3-yl]formamido}-3-hydroxy-2-methylpropanamide]
> 6.00 | Cc1oc2ccc(OCC3(C(F)F)CC3)cc2c1C(=O)N[C@@H](CO)C(N)=O [Cpd 003, (2S)-2-[(5-{[1-(difluoromethyl)cyclopropyl]methoxy}-2-methyl-1-benzofuran-3-yl)formamido]-3-hydroxypropanamide]
4.70 to 6.00 | Cc1oc2ccc(OCC3CC3)cc2c1C(=O)NC(CO)C(N)C(F)(F)F (single isomer, unassigned) [Cpd 056 - En1, N-[(2)-3-amino-4,4,4-trifluoro-1-hydroxybutan-2-yl]-5-(cyclopropylmethoxy)-2-methyl-1-benzofuran-3-carboxamide]
> 6.00 | Cc1oc2ccc(OCC3CC3)cc2c1C(=O)NC1(CO)CCNC1=O (single isomer, unassigned) [Cpd 028 - En2, 5-(cyclopropylmethoxy)-N-[3-(hydroxymethyl)-2-oxopyrrolidin-3-yl]-2-methyl-1-benzofuran-3-carboxamide]
> 6.00 | Cc1oc2ccc(OCC3CC3)cc2c1C(=O)NC(CO)C(N)C(F)(F)F (single isomer, unassigned) [Cpd 056 - En3, N-[(2)-3-amino-4,4,4-trifluoro-1-hydroxybutan-2-yl]-5-(cyclopropylmethoxy)-2-methyl-1-benzofuran-3-carboxamide]
